In brackets after ≈: the same amount, converted by molar mass. Several values for one entry are separate records, joined by “and”; a condition that tells them apart may be missing. Equal entries are not always repeated.
What was measured:
[1] = system: Purpureocillium lilacinum; assay: MIC against rare moulds resistant to AmB; format: cell-based; settings: 6 isolates
A. niger = assay: MIC against moulds; format: cell-based; settings: 6 isolates
Fusarium oxysporum = assay: MIC against moulds; format: cell-based; settings: 6 isolates
A. terreus = assay: MIC against moulds; format: cell-based; settings: 6 isolates
Coccidioides immitis = assay: microbe, parasite or virus in culture; format: cell-based
CYP1A2 = molecular target: T1, CYP1A2 (Homo sapiens, UniProt P05177); assay: CYP Inhibition; format: in vitro ADME; settings: human liver microsome; for P450 1A2 % Inhibition: 10 um
T1 construct: from tissue; host or cells: human liver microsomes
T1 sequence (P05177 1-516): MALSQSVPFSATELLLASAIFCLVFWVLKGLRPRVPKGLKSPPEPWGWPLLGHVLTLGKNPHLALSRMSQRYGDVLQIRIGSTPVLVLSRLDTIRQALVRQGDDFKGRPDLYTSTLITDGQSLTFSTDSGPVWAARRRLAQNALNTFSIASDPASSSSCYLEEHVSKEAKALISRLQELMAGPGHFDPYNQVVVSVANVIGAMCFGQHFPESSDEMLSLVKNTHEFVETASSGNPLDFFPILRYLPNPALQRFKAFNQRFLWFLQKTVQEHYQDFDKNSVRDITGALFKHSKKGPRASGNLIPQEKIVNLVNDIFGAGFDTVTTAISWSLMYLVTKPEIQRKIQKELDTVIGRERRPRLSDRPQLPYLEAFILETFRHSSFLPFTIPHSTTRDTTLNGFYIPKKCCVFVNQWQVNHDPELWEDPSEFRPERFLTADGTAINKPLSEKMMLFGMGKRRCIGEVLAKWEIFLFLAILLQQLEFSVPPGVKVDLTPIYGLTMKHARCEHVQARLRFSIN
Experimental: (§1) The working solutions of the test compounds and the standard inhibitors were prepared in DMSO (100× final concentration). 20 ul of substrate solution (5 in 1 cocktail) was added to the wells followed by 2 ul test compound solution was added. 158 ul of human liver microsome (HLM) was added to all the wells of the incubated plate and warmed to 37° C. for 10 mins. 20 ul of NADPH cofactor solution was then added to all the wells of incubated plate and incubated at 37° C. for 10 mins. At the time point the reaction was quenched by adding 400 uL of cold stop solution. The samples were centrifuged at 4000 rpm for 20 mins to precipitate protein. 100 ul supernatant was diluted with 100 ul of ultra pure water and analyzed using LCMS.

A. thermomutatus = assay: MIC against moulds; format: cell-based; settings: for MIC A. thermomutatus: 6 isolates
Cunninghamella sp. = assay: MIC against moulds; format: cell-based; settings: 6 isolates
Talaromyces marneffei = assay: MIC against moulds; format: cell-based; settings: 6 isolates
Saksenaea sp. = assay: MIC against moulds; format: cell-based; settings: 4 isolates
Syncephalastrum sp. = assay: MIC against moulds; format: cell-based; settings: 6 isolates
A. flavus = assay: MIC against moulds; format: cell-based; settings: 6 isolates
Candida albicans SN250 = assay: Mouse model of invasive candidiasis (kidney CFU); settings: for Mouse candidiasis model: 5 mpk
A. lentulus = assay: MIC against moulds; format: cell-based; settings: 6 isolates
Candida krusei = assay: MIC against yeasts; format: cell-based; settings: 2 isolates
yeast (5 strains) = assay: MICavg yeast (5 strains); format: cell-based; parameters: unit not given beside the values
Blastomyces dermatitidis = assay: MIC against moulds; format: cell-based; settings: 5 isolates
Cryptococcus neoformans = assay: MIC against yeasts; format: cell-based; settings: 10 isolates
Different Yeasts = assay: Average MIC against different yeasts; format: cell-based; parameters: MICavg yeast (46 strains): unit not given beside the values; settings: for MIC: 46 isolates
Mucor janssenii = assay: MIC against moulds; format: cell-based; settings: 6 isolates
[2] = system: C. albicans SN250, C. albicans, C. krusei, C. glabrata, C. tropicalis, A. fumigatus 91, 1163, 1100; assay: Average MIC over the tested strains; format: cell-based; parameters: Avg. MIC of AmB amide: unit not given here; settings: for MIC: average over the 8 listed strains; for Avg. MIC of AmB amide: value of the corresponding C16 amide of AmB
A. fumigatus = assay: MIC against moulds; format: cell-based; settings: 5 isolates
CYP3A4 = CYP3A4 (Homo sapiens, UniProt P08684); assay: CYP Inhibition; settings: for P450 3A4 % Inhibition: 10 um, human liver microsome
Sequence of CYP3A4 (P08684 whole entry): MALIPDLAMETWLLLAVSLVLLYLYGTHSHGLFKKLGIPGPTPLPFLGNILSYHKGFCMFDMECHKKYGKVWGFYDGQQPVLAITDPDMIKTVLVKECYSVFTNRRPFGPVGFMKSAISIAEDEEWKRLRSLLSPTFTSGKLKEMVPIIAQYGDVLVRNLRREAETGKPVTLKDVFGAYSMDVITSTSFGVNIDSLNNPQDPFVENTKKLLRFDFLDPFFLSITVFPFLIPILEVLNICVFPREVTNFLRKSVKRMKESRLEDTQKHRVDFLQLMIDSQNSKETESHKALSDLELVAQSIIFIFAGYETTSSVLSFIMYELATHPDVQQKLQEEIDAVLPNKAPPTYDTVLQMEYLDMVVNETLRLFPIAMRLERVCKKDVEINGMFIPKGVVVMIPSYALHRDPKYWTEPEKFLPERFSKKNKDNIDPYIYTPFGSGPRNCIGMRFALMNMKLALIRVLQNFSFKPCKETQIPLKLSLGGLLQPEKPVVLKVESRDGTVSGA
Experimental: as §1

moulds (3 strains) = assay: MICavg moulds (3 strains); format: cell-based; parameters: unit not given beside the values
Candida auris = assay: MIC against yeasts; format: cell-based; settings: 10 isolates
Lomentospora prolificans = assay: MIC against rare moulds resistant to AmB; format: cell-based; settings: 6 isolates
Licht. Corymbifera = assay: MIC against moulds; format: cell-based; settings: 6 isolates
[3] = UV-Vis sterol binding assay
Experimental: However, an alternative method was developed for reproducible formation of homogenous AmB and C2′epiAmB sterol sponge aggregates in vitro. Using these preparations, a quantitative UV-Vis and Principle Component (PCA) based assay for determining the apparent KDs for the binding of AmB and C2′epiAmB to ergosterol and cholesterol (FIGS. 5A-5D) was developed.
UV-Vis Binding Assay (FIG. 21A): The protocol for the sterol binding assay (UV-Vis) was developed in our lab. Compounds were dissolved in DMSO at a final concentration of 1 mM. Sterol were first dissolved in CHCl3 (>200 mM) and then diluted to 1 mM concentration with DMSO. To synthesize the complex 1 ul of compound solution was taken in a clean eppendorf tube (2 ml) and sterol solution (volume depends on the stoichiometry) was added to it and the volume was made up to 20 ul with DMSO. 0.98 ml of PBS buffer was added to the Eppendorf tube and mixed properly. The absorbance of the solution was measured after 30 mins of incubation.

Histoplasma capsulatum = assay: microbe, parasite or virus in culture; format: cell-based
[4] = Table 12, C16 amides of C2'epiAmB
[5] = Table 13, C16 amides of C2’epiAmB

CC1C=CC=CC=CC=CC=CC=CC=CC(OC2OC(C)C(O)C(N)C2O)CC2OC(O)(CC(O)CC(O)C(O)CCC(O)CC(O)CC(=O)OC(C)C(C)C1O)CC(O)C2C(=O)NCCO (stereo not drawn) [Compound BA]
MIC [1]: >16 µM | MIC (A. niger): 0.58 µM (≈ 0.561 µg/mL) | MIC (Fusarium oxysporum): 11.3 µM (≈ 10.9 µg/mL) | MIC (A. terreus): 3.33 µM (≈ 3.22 µg/mL) | MIC Coccidioides immitis (Coccidioides immitis): 0.29 µM (≈ 0.28 µg/mL) | P450 1A2 % Inhibition (CYP1A2): 0.0% | MIC A. thermomutatus (A. thermomutatus): 1.6 µM (≈ 1.55 µg/mL) | MIC (Cunninghamella sp.): 7.3 µM (≈ 7.06 µg/mL) | MIC (Talaromyces marneffei): 0.15 µM (≈ 0.145 µg/mL) | MIC (Saksenaea sp.): 0.34 µM (≈ 0.329 µg/mL) | MIC (Syncephalastrum sp.): 1 µM (≈ 0.967 µg/mL) | MIC (A. flavus): 2.67 µM (≈ 2.58 µg/mL) | Mouse candidiasis model (Candida albicans SN250): 6.3 Log (CFU/mL) | Efficacy in mouse model of invasive candidiasis (Candida albicans SN250; in vivo): Highly Efficacious | MIC (A. lentulus): 3 µM (≈ 2.9 µg/mL) | MIC (Candida krusei): 4 µM (≈ 3.87 µg/mL) | MICavg yeast (5 strains) (yeast (5 strains)): 0.59 | MIC (Blastomyces dermatitidis): 0.6 µM (≈ 0.58 µg/mL) | MIC (Cryptococcus neoformans): 2 µM (≈ 1.93 µg/mL) | MICavg yeast (46 strains) (Different Yeasts): 2.5 | MIC (Different Yeasts): 2.5 µM (≈ 2.42 µg/mL) | MIC (Mucor janssenii): 0.92 µM (≈ 0.89 µg/mL) | Average MIC [2, 4]: 1.031 µM | Average MIC [2, 5]: 1030 µM | MIC [2]: 0.727 µM | Average MIC for AmB analogue ([2]; value of the corresponding AmB analogue, not of the C2’epi compound): 0.328 μM | Avg. MIC of AmB amide ([2]; not of the C2’epi compound): 0.18 | MIC (A. fumigatus): 2 µM (≈ 1.93 µg/mL) | P450 3A4 % Inhibition (CYP3A4): 15.7% | MICavg moulds (3 strains) (moulds (3 strains)): 1.3 | MIC (Candida auris): 2.8 µM (≈ 2.71 µg/mL) | MIC (Lomentospora prolificans): >16 µM | MIC (Licht. Corymbifera): 1 µM (≈ 0.967 µg/mL) | Binds Cholesterol [3]: No | Cholesterol Binding [3]: No | MIC Histoplasma capsulatum (Histoplasma capsulatum): 0.06 µM (≈ 0.058 µg/mL)

C[C@@H]1[C@H](O)[C@@H](C)/C=C/C=C/C=C/C=C/C=C/C=C/C=C/[C@H](OC2O[C@H](C)[C@@H](O)[C@H](N)[C@@H]2O)C[C@@H]2O[C@](O)(C[C@@H](O)C[C@@H](O)[C@H](O)CC[C@@H](O)C[C@@H](O)CC(=O)O[C@H]1C)C[C@H](O)[C@H]2C(=O)O (stereo partly drawn) [AmB, Amphotericin B]
MIC ([1]; Purpureocillium lilacinum): > 16 µM | MIC (A. niger; Aspergillus niger): 0.21 µM (≈ 0.194 µg/mL) | MIC (Fusarium oxysporum; Fusarium oxysporum): 1.5 µM (≈ 1.39 µg/mL) | MIC (A. terreus; Aspergillus terreus): 3 µM (≈ 2.77 µg/mL) | MIC (Coccidioides immitis; Coccidioides immitis, read-out: MIC Coccidioides immitis): 0.125 µM (≈ 0.116 µg/mL) | inhibition at 10 min, 10 µM (CYP1A2; human liver microsomes, probe 5 in 1 substrate cocktail, read-out: P450 1A2 % Inhibition): 23.1% | MIC (A. thermomutatus; Aspergillus thermomutatus, read-out: MIC A. thermomutatus): 0.6 µM (≈ 0.554 µg/mL) | MIC (Cunninghamella sp.; Cunninghamella): 2 µM (≈ 1.85 µg/mL) | MIC (Talaromyces marneffei; Talaromyces marneffei): 0.09 µM (≈ 0.0832 µg/mL) | MIC (Saksenaea sp.): 0.06 µM (≈ 0.0554 µg/mL) | MIC (Syncephalastrum sp.; Syncephalastrum): 0.06 µM (≈ 0.0554 µg/mL) | MIC (A. flavus; Aspergillus flavus): 1.16 µM (≈ 1.07 µg/mL) | Mouse candidiasis model (Candida albicans SN250): 5.2 Log (CFU/mL) | MIC (A. lentulus; Aspergillus lentulus): 3.75 µM (≈ 3.47 µg/mL) | MIC (Candida krusei; Pichia kudriavzevii): 1 µM (≈ 0.924 µg/mL) | MICavg yeast (5 strains) (yeast (5 strains)): 0.23 | MIC (Blastomyces dermatitidis; Blastomyces dermatitidis): < 0.03 µM | MIC (Cryptococcus neoformans; Cryptococcus neoformans): 0.55 µM (≈ 0.508 µg/mL) | MICavg yeast (46 strains) (Different Yeasts): 0.9 | MIC (Different Yeasts): 0.9 µM (≈ 0.832 µg/mL) | MIC (Mucor janssenii; Mucor janssenii): 0.06 µM (≈ 0.0554 µg/mL) | MIC [2]: 0.642 µM and 0.44 µM | MIC (A. fumigatus; Aspergillus fumigatus): 0.71 µM (≈ 0.656 µg/mL) | inhibition at 10 min, 10 µM (CYP3A4; human, human liver microsomes, probe 5 in 1 substrate cocktail (substrates not named)): 8.1% | MICavg moulds (3 strains) (moulds (3 strains)): 0.92 | MIC (Candida auris; Candidozyma auris): 1.2 µM (≈ 1.11 µg/mL) | MIC (Lomentospora prolificans; Lomentospora prolificans): > 16 µM | MIC (Licht. Corymbifera; Lichtheimia corymbifera): 0.23 µM (≈ 0.213 µg/mL) | Binds Cholesterol [3]: Yes | Cholesterol Binding [3]: Yes | MIC (Histoplasma capsulatum; Histoplasma capsulatum, read-out: MIC Histoplasma capsulatum): 0.06 µM (≈ 0.0554 µg/mL)

CC1C=CC=CC=CC=CC=CC=CC=CC(OC2OC(C)C(O)C(N)C2O)CC2OC(O)(CC(O)CC(O)C(O)CCC(O)CC(O)CC(=O)OC(C)C(C)C1O)CC(O)C2C(=O)NCCF (stereo not drawn) [Compound BM]
MIC [1]: >16 µM | MIC (A. niger): 3 µM (≈ 2.91 µg/mL) | MIC (Fusarium oxysporum): 9.3 µM (≈ 9.01 µg/mL) | MIC (A. terreus): 1.08 µM (≈ 1.05 µg/mL) | MIC Coccidioides immitis (Coccidioides immitis): 0.23 µM (≈ 0.223 µg/mL) | P450 1A2 % Inhibition (CYP1A2): 7.8% | MIC A. thermomutatus (A. thermomutatus): 1.7 µM (≈ 1.65 µg/mL) | MIC (Cunninghamella sp.): 6 µM (≈ 5.81 µg/mL) | MIC (Talaromyces marneffei): 0.2 µM (≈ 0.194 µg/mL) | MIC (Saksenaea sp.): 0.34 µM (≈ 0.33 µg/mL) | MIC (Syncephalastrum sp.): 1 µM (≈ 0.969 µg/mL) | MIC (A. flavus): 2.5 µM (≈ 2.42 µg/mL) | Mouse candidiasis model (Candida albicans SN250): 5.7 Log (CFU/mL) | MIC (A. lentulus): 2.83 µM (≈ 2.74 µg/mL) | MIC (Candida krusei): 2 µM (≈ 1.94 µg/mL) | MICavg yeast (5 strains) (yeast (5 strains)): 0.58 | MIC (Blastomyces dermatitidis): 0.5 µM (≈ 0.485 µg/mL) | MIC (Cryptococcus neoformans): 2 µM (≈ 1.94 µg/mL) | MICavg yeast (46 strains) (Different Yeasts): 2.3 | MIC (Different Yeasts): 2.3 µM (≈ 2.23 µg/mL) | MIC (Mucor janssenii): 0.92 µM (≈ 0.892 µg/mL) | Average MIC [2, 4]: 0.844 µM | Average MIC [2, 5]: 840 µM | Avg. MIC of AmB amide ([2]; not of the C2’epi compound): 0.39 | MIC (A. fumigatus): 1.83 µM (≈ 1.77 µg/mL) | P450 3A4 % Inhibition (CYP3A4): 12.4% | MICavg moulds (3 strains) (moulds (3 strains)): 1.7 | MIC (Candida auris): 2.4 µM (≈ 2.33 µg/mL) | MIC (Lomentospora prolificans): >16 µM | MIC (Licht. Corymbifera): 1 µM (≈ 0.969 µg/mL) | Binds Cholesterol [3]: No | MIC Histoplasma capsulatum (Histoplasma capsulatum): 0.06 µM (≈ 0.0581 µg/mL)
